Literature values in patent publication US6689302B2, “Method of making an antimicrobial tympanostomy tube” (Medtronic Xomed, Inc., priority 1993, dated 2004).

Test system: postoperative otorrhea
Conditions: Baker and Chole trial; ophthalmic solution used as otic drops

Which incidence of infection does the source give for Gentamicin here?
The incidence of infection was “significantly reduced”.
